Assay results from patent US20060069132A1, “Azolecarboxamide herbicides” (priority 2004, published 2006).

Columns and labels:
barnyardgrass [1] = assay: Test A pre-/postemergence herbicide test; type: in vivo, Echinochloa crus-galli
Outline: (§1)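 Visual injury rating on a 0–100 scale (0 no effect, 100 complete control) versus untreated controls, about ten days after treatment in greenhouse. Pre: directed soil spray onto seeded sandy loam. Post: spray to runoff on plants 2–10 cm tall at one- to two-leaf stage.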

large crabgrass [2] = assay: Test A pre-/postemergence herbicide test; type: in vivo, Digitaria sanguinalis
Outline: as §1

giant foxtail [3] = assay: Test A pre-/postemergence herbicide test; type: in vivo, Setaria faberi
Outline: as §1

morningglory [4] = assay: Test A pre-/postemergence herbicide test; type: in vivo, Ipomoea spp.
Outline: as §1

redroot pigweed = assay: Test A pre-/postemergence herbicide test; type: in vivo, Amaranthus retroflexus
Outline: as §1

velvetleaf [5] = assay: Test A pre-/postemergence herbicide test; type: in vivo, Abutilon theophrasti
Outline: as §1

barnyardgrass [6] = assay: Test B pre-/postemergence herbicide test; type: in vivo, Echinochloa crus-galli; details: for Plant response rating, Barnyardgrass: preemergence; for Barnyardgrass plant response rating: postemergence, visual rating, scale 0 (no effect) to 100 (complete control)
Outline: (§2)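 Herbicidal effect was judged by eye on a 0–100 scale after plants stood 13 to 15 days in the greenhouse following pre- or postemergence treatment with surfactant-containing formulations.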

Surinam grass = assay: Test B pre-/postemergence herbicide test; type: in vivo, Urochloa decumbens; details: for Plant response rating, Surinam Grass: preemergence; for Surinam Grass plant response rating: postemergence, visual rating, scale 0 (no effect) to 100 (complete control)
Outline: (§3)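 Visual rating, 0 (no effect) to 100 (complete control), versus untreated controls after 13–15 d in greenhouse. Pre- and postemergence applications (postemergence plants 2–18 cm, 1–4 leaves); flooded paddy arm at 2-leaf stage. Compounds in non-phytotoxic solvent plus surfactant.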

cocklebur = assay: Test B pre-/postemergence herbicide test; type: in vivo, Xanthium strumarium; details: for Plant response rating, Cocklebur: preemergence; for Cocklebur plant response rating: postemergence, visual rating, scale 0 (no effect) to 100 (complete control)
Outline: as §2

corn = assay: Test B pre-/postemergence herbicide test; type: in vivo, Zea mays; details: for Plant response rating, Corn: preemergence; for Corn plant response rating: postemergence, visual rating, scale 0 (no effect) to 100 (complete control)
Outline: as §3

large crabgrass [7] = assay: Test B pre-/postemergence herbicide test; type: in vivo, Digitaria sanguinalis; details: for Plant response rating, Crabgrass, Large: preemergence; for Crabgrass, Large plant response rating: postemergence, visual rating, scale 0 (no effect) to 100 (complete control)
Outline: as §3

giant foxtail [8] = assay: Test B pre-/postemergence herbicide test; type: in vivo, Setaria faberi; details: for Plant response rating, Foxtail, Giant: preemergence; for Foxtail, Giant plant response rating: postemergence, visual rating, scale 0 (no effect) to 100 (complete control)
Outline: as §3

lambsquarters = assay: Test B pre-/postemergence herbicide test; type: in vivo, Chenopodium album; details: for Plant response rating, Lambsquarters: preemergence; for Lambsquarters plant response rating: postemergence, visual rating, scale 0 (no effect) to 100 (complete control)
Outline: as §3

morningglory [9] = assay: Test B pre-/postemergence herbicide test; type: in vivo, Ipomoea coccinea; details: for Plant response rating, Morningglory: preemergence; for Morningglory plant response rating: postemergence, visual rating, scale 0 (no effect) to 100 (complete control)
Outline: as §2

pigweed = assay: Test B pre-/postemergence herbicide test; type: in vivo, Amaranthus retroflexus; details: for Plant response rating, Pigweed: preemergence; for Pigweed plant response rating: postemergence, visual rating, scale 0 (no effect) to 100 (complete control)
Outline: as §3

rice [10] = assay: Test B pre-/postemergence herbicide test; type: in vivo, Oryza sativa; details: preemergence
Outline: as §3

velvetleaf [11] = assay: Test B pre-/postemergence herbicide test; type: in vivo, Abutilon theophrasti; details: for Plant response rating, Velvetleaf: preemergence; for Velvetleaf plant response rating: postemergence, visual rating, scale 0 (no effect) to 100 (complete control)
Outline: as §3

blackgrass = assay: Test B postemergence herbicide test; type: in vivo, Alopecurus myosuroides; details: postemergence, visual rating, scale 0 (no effect) to 100 (complete control)
Outline: (§4)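 Treated at 2-leaf (paddy) or 1–4-leaf, 2–18 cm (postemergence); greenhouse 13–15 d; visual score vs control, 0 none to 100 complete control; dash = not tested.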

wheat = assay: Test B postemergence herbicide test; type: in vivo, Triticum aestivum; set-up: key to Wheat plant response rating: 0 = no effect, 100 = complete control; details: postemergence, 500 g ai/ha; visual rating, scale 0 (no effect) to 100 (complete control)
Outline: (§5)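 Formulated test chemicals went onto postemergence plants measuring 2 to 18 cm, at one to four leaves. For the paddy assay, species had reached two leaves. Scoring took place 13–15 days later by eye, relative to untreated plants, using 0 for no effect up to 100 for full control.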

wild oat = assay: Test B postemergence herbicide test; type: in vivo, Avena fatua; details: postemergence, visual rating, scale 0 (no effect) to 100 (complete control)
Outline: as §5

rice [12] = assay: Test B flooded paddy test; type: in vivo, Oryza sativa; details: 1000 g ai/ha, visual rating, scale 0 to 100 (0 no effect, 100 complete control), 13 to 15 days
Outline: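 Read-out: visual comparison with controls, scored 0 to 100, where 100 means complete control and 0 no effect. Formulated chemicals were applied postemergence to plants 2–18 cm tall (1- to 4-leaf), or to flooded-paddy plants at the 2-leaf stage, then held 13 to 15 days under glass.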

[13] = tested on: small flower umbrella sedge; assay: Test B flooded paddy test; type: in vivo, Cyperus difformis; details: 1000 g ai/ha, visual rating, scale 0 to 100 (0 no effect, 100 complete control), 13 to 15 days
Outline: as §4

ducksalad = assay: Test B flooded paddy test; type: in vivo, Heteranthera limosa; details: 1000 g ai/ha, visual rating, scale 0 to 100 (0 no effect, 100 complete control), 13 to 15 days
Outline: as §4

barnyardgrass [14] = assay: Test B flooded paddy test; type: in vivo, Echinochloa crus-galli; details: 1000 g ai/ha, visual rating, scale 0 to 100 (0 no effect, 100 complete control), 13 to 15 days
Outline: as §4

[15] = Postemergence, 500 g ai/ha, 0 to 100 scale, 0 no effect, 100 complete control
[16] = Postemergence, 2000 g ai/ha, 0 to 100 scale, 0 no effect, 100 complete control
[17] = Preemergence, 500 g ai/ha, visual rating, 0 to 100 scale (0 no effect, 100 complete control)
[18] = Preemergence, 2000 g ai/ha, visual rating, 0 to 100 scale (0 no effect, 100 complete control)
[19] = preemergence, 500 g ai/ha, visual injury, 0 to 100 scale (0 no effect, 100 complete control)
[20] = 500 g ai/ha, visual rating 0-100, 0 no effect, 100 complete control
[21] = 125 g ai/ha, 0 to 100 scale, 0 is no effect, 100 is complete control

## CCn1nc(C(C)(C)C)cc1C(=O)Nc1cc(C(=O)NC(C)(C)C)ccn1 [Compound 154]
Barnyardgrass [1]; [15]
  Barnyardgrass plant response rating: 50
Barnyardgrass [1]; [16]
  Plant response rating, Barnyardgrass: 90
Barnyardgrass [1]; [17]
  Barnyardgrass plant response rating: 30
Barnyardgrass [1]; [18]
  Barnyardgrass plant response rating: 95
Large crabgrass [2]; [15]
  Crabgrass, Large plant response rating: 20
Large crabgrass [2]; [16]
  Plant response rating, Crabgrass, Large: 30
Large crabgrass [2]; [17]
  Crabgrass, Large plant response rating: 25
Large crabgrass [2]; [18]
  Crabgrass, Large plant response rating: 85
Giant foxtail [3]; [15]
  Foxtail, Giant plant response rating: 20
Giant foxtail [3]; [16]
  Plant response rating, Foxtail, Giant: 20
Giant foxtail [3]; [17]
  Foxtail, Giant plant response rating: 20
Giant foxtail [3]; [18]
  Foxtail, Giant plant response rating: 70
Morningglory [4]; [15]
  Morningglory plant response rating: 20
Morningglory [4]; [16]
  Plant response rating, Morningglory: 40
Morningglory [4]; [17]
  Morningglory plant response rating: 10
Morningglory [4]; [18]
  Morningglory plant response rating: 30
Redroot pigweed; [15]
  Pigweed plant response rating: 90
Redroot pigweed; [16]
  Plant response rating, Pigweed: 100
Redroot pigweed; [18]
  Pigweed plant response rating: 100
Redroot pigweed; [19]
  Pigweed plant response rating: 85
Velvetleaf [5]; [15]
  Velvetleaf plant response rating: 10
Velvetleaf [5]; [16]
  Plant response rating, Velvetleaf: 30
Velvetleaf [5]; [18]
  Velvetleaf plant response rating: 60
Velvetleaf [5]; [19]
  Velvetleaf plant response rating: 15
Barnyardgrass [6]; [20]
  Plant response rating, Barnyardgrass: 80
Barnyardgrass [6]; 125 g ai/ha
  Barnyardgrass plant response rating: 20
Barnyardgrass [6]; 500 g ai/ha
  Barnyardgrass plant response rating: 50
Barnyardgrass [6]; [21]
  Plant response rating, Barnyardgrass: 10
Surinam grass; [20]
  Plant response rating, Surinam Grass: 10
Surinam grass; 125 g ai/ha
  Surinam Grass plant response rating: 30
Surinam grass; 500 g ai/ha
  Surinam Grass plant response rating: 60
Surinam grass; [21]
  Plant response rating, Surinam Grass: 0
cocklebur; [20]
  Plant response rating, Cocklebur: 10
cocklebur; 125 g ai/ha
  Cocklebur plant response rating: 60
cocklebur; 500 g ai/ha
  Cocklebur plant response rating: 70
cocklebur; [21]
  Plant response rating, Cocklebur: 0
corn; [20]
  Plant response rating, Corn: 0
corn; 125 g ai/ha
  Corn plant response rating: 10
corn; 500 g ai/ha
  Corn plant response rating: 20
corn; [21]
  Plant response rating, Corn: 0
Large crabgrass [7]; [20]
  Plant response rating, Crabgrass, Large: 80
Large crabgrass [7]; 125 g ai/ha
  Crabgrass, Large plant response rating: 10
Large crabgrass [7]; 500 g ai/ha
  Crabgrass, Large plant response rating: 20
Large crabgrass [7]; [21]
  Plant response rating, Crabgrass, Large: 50
Giant foxtail [8]; [20]
  Plant response rating, Foxtail, Giant: 30
Giant foxtail [8]; 125 g ai/ha
  Foxtail, Giant plant response rating: 10
Giant foxtail [8]; 500 g ai/ha
  Foxtail, Giant plant response rating: 20
Giant foxtail [8]; [21]
  Plant response rating, Foxtail, Giant: 0
lambsquarters; [20]
  Plant response rating, Lambsquarters: 90
lambsquarters; 125 g ai/ha
  Lambsquarters plant response rating: 80
lambsquarters; 500 g ai/ha
  Lambsquarters plant response rating: 90
lambsquarters; [21]
  Plant response rating, Lambsquarters: 70
Morningglory [9]; [20]
  Plant response rating, Morningglory: 0
Morningglory [9]; 125 g ai/ha
  Morningglory plant response rating: 60
Morningglory [9]; 500 g ai/ha
  Morningglory plant response rating: 70
Morningglory [9]; [21]
  Plant response rating, Morningglory: 0
pigweed; [20]
  Plant response rating, Pigweed: 100
pigweed; 125 g ai/ha
  Pigweed plant response rating: 20
pigweed; 500 g ai/ha
  Pigweed plant response rating: 80
pigweed; [21]
  Plant response rating, Pigweed: 90
Rice [10]; [20]
  Plant response rating, Rice: 0
Rice [10]; [21]
  Plant response rating, Rice: 0
Velvetleaf [11]; [20]
  Plant response rating, Velvetleaf: 70
Velvetleaf [11]; 125 g ai/ha
  Velvetleaf plant response rating: 20
Velvetleaf [11]; 500 g ai/ha
  Velvetleaf plant response rating: 60
Velvetleaf [11]; [21]
  Plant response rating, Velvetleaf: 70
blackgrass; 125 g ai/ha
  Blackgrass plant response rating: 10
blackgrass; 500 g ai/ha
  Blackgrass plant response rating: 10
wheat
  Wheat plant response rating: 10
Wild oat; 125 g ai/ha
  Oat, Wild plant response rating: 10
Wild oat; 500 g ai/ha
  Oat, Wild plant response rating: 30
Rice [12]
  Rice plant response rating: 20
[13]
  Sedge, Umbrella plant response rating: 20
ducksalad
  Ducksalad plant response rating: 80
Barnyardgrass [14]
  Barnyardgrass plant response rating: 50
